Measured values reported in EP0337167B1, “4-Aryl-4-piperidine (or pyrrolidine or hexahydroazepine) carbinols and heterocyclic analogs thereof” (THE DU PONT MERCK PHARMACEUTICAL COMPANY, priority 1988, dated 1989).
Where two headings read alike, the source gives them in different places.

Experiments:
Male CF1 mice = assay: Mouse antiphenylquinone writhing (PQW) test; type: in vivo; set-up: Mouse PQW ED50 (mg/kg): unit not given here; conditions: for Mouse PQW ED50 (mg/kg): Table 4, 3° carbinols within the scope of U.S. 4,485,109, head prints neither endpoint nor unit; for ED50: Mus musculus, 0.5 h, phenylquinone 1.25 mg/kg i.p., observation beginning 30 min after injection of test compound; for ED50 / Mouse PQW remark: Table 3; for Mouse PQW remark: remark beside S.C and P.O values
Procedure: The anti-pheylquinone writhing (PQW) test modified from the methods of Siegmund et al. (Proc. Soc. Exp. Biol. Med. 95: 729-731, 1957) and Blumberg et al. (Proc. Exp. Biol. Med. 118: 763-767, 1965) was used to assess analgesia in mice. Male CF1 mice (Charles River Breeding Laboratories, Wilmington, MA), fasted for 16-22 h and weighing 18-23 g, were injected with randomized and coded doses of test compounds, then challenged with 1.25 mg/kg i.p. phenyl-p-benzoquinone (phenylquinone) 5 min prior to the specified observation time. The phenylquinone solution (0.1 mg/ml in 5% aqueous ethanol) was prepared daily and stored in foil-wrapped amber bottles to limit degradation. Mice were observed 10 min for the presence or absence of the characteristic abdominal constriction and stretching response beginning 30 min after injection of the test compound. Analgetic activity was calculated as the percentage of mice failing to respond to the phenylquinone challenge dose. […] Median effective doses (ED50's) and 95% confidence limits were determined numerically by the methods of Thompson (Bacteriological Rev. 11: 115-145, 1947), and Litchfield and Wilcoxon (J. Pharmacol. Exp. Ther. 96: 99.113, 1949).
The data shown in Table show the PQW ED₅₀ values for the compounds of the aforesaid examples.
Table 4 illustrates that the 3° carbinols within the scope of U.S. 4,485,109 have utility as analgesic agents.

Male CF mice = assay: Antagonism of tetrabenazine-induced depression (exploratory loss and ptosis) in mice; type: in vivo; conditions: Mus musculus, po, 1 h, orally, one hour post-drug, tetrabenazine methane sulfonate 52 mg/kg i.p., read-out: Oral ED₅₀ (mg/kg) for Prevention of Ptosis
Description: The prevention of tetrabenazine-induced sedation and depression in mice is a standard procedure used to detect and compare antidepressant compounds. The activity of antidepressant compounds in this procedure correlates well with human efficacy. (Barnett, et al., Int. J. Neuropharmac. 8: 73-79, 1969, and Vernier, et al., "The Pharmacodynamics of Amitriptyline" in Psychsomatic Medicine (Nodine & Moyer, editors) pp. 683-690, 1962).
Male CF mice (Charles River Breeding Laboratories, Wilmingon, MA), fasted for 16-22 hours and weighing 18-25 g, were injected with randomized and coded does of test compounds, then challenged with 52 mg/kg i.p. tetrabenazine methane sulfonate 30 minutes prior to the specified observation time. The tetrabenazine methane sulfonate solution (5.2 mg/ml in distilled water) was prepared daily and stored in foil-wrapped amber bottles to limit degradation. […] Exploratory loss was defined as failing to move to the perimeter of a 12.7 cm (5 inch) (12.7 cm) circle within 15 seconds of being placed at the center of the circle. Ptosis was defined as both eyelids closed 50% or more compared to normal. Antidepressant activity was calculated as the percentage of mice failing to respond to the tetrabenazine challenge dose. […] Median effective does (ED₅₀'s) were estimated using the Moving Average method of Thompson (Bacteriological Rev. 11: 115-145, 1947).
The data in Table 5 show ED₅₀ values for the compounds of the aforesaid examples.

[1] = po, p.o., read-out: Mouse PQW ED₅₀ (Mg/Kg) P.O
[2] = sc, s.c., read-out: Mouse PQW ED₅₀ (Mg/Kg) S.C

Structure (SMILES)	Mouse PQW ED50 (mg/kg) (Male CF1 mice; p.o.)	ED50 (Male CF1 mice; [1]) [mg/kg]	ED50 (Male CF1 mice; [2]) [mg/kg]	further results
COc1cccc(C2(C(C)(C)O)CCN(C)CC2)c1 [BB]	19.0	–	–	Mouse PQW ED50 (mg/kg) (Male CF1 mice; s.c.): 12.0
C=CCN1CCC(c2cccc(Cl)c2)(C(C)(C)O)CC1 [Example 42, 1-allyl,4-(3'-chlorophenyl)-α,α dimethyl-4-piperidinemethanol]	–	54	27	–
CC(O)C1(c2ccc(F)c(F)c2)CCN(C)CC1 (centres unmarked) [Example 7]	–	> 81	38	–
CN1CCC(c2cccc3ccccc23)(C(C)(C)O)CC1 [Example 50]	–	67	24	–
CCCN1CCC(c2cccc(Cl)c2)(C(C)O)CC1 (centres unmarked) [Example 34]	–	> 81	38	–
CN1CCC(c2ccc3ccccc3c2)(C(C)(C)O)CC1 [KK]	47.0	–	–	Mouse PQW ED50 (mg/kg) (Male CF1 mice; s.c.): 27.0
CC(=O)OC(C)C1(c2cccc(Cl)c2)CCN(C)CC1 (stereo not drawn) [Example 66, 4-(3'-Chlorophenyl)-α,1-dimethyl-4-piperidinemethanol-Acetate]	–	19	13	–
CC(O)C1(c2ccc(Br)cc2)CCN(C)CC1 (centres unmarked) [Example 11]	–	> 81	> 81	Mouse PQW remark (Male CF1 mice): Inactive
CN1CCC(c2cccc(Cl)c2)(C(C)(C)O)C1 (stereo not drawn) [Example 70, 3-(3'Chlorophenyl)-α,α,1-trimethyl-3-pyrrolidinemethanol]	–	13	10	–
CC(O)C1(c2ccccc2F)CCN(C)CC1 (centres unmarked) [Example 4]	–	> 81	> 81	Mouse PQW remark (Male CF1 mice): Inactive
CC(O)C1(c2cccc(C(F)(F)F)c2)CCN(C)CC1 (centres unmarked) [Example 15]	–	30	19	–
CCC(O)C1(c2cccc(Cl)c2)CCN(C)CC1 (centres unmarked) [Example 35]	–	30	16	–
CCCC(O)C1(c2cccc(Cl)c2)CCN(C)CC1 (centres unmarked) [Example 36]	–	> 81	67	–
CN1CCC(c2csc3ccccc23)(C(C)(C)O)CC1 [Example 45]	–	54	4.2	–
COc1cccc(C2(C3(O)CCCCC3)CCN(C)CC2)c1 [GG]	<108.0	–	–	–
COC(C)C1(c2cccc(Cl)c2)CCN(C)CC1 (centres unmarked) [Example 68]	–	19	6.5	–
CCC(O)(CC)C1(c2cccc(OC)c2)CCN(C)CC1 [DD]	12.0	–	–	–
CN1CCC(c2cccc(F)c2)(C(C)(C)O)CC1 [X]	>81.0	–	–	Mouse PQW ED50 (mg/kg) (Male CF1 mice; s.c.): 10.0
COc1cccc(C2(C3(O)CCC3)CCN(C)CC2)c1 [EE]	>54.0	–	–	Mouse PQW ED50 (mg/kg) (Male CF1 mice; s.c.): 22.0
Cc1cc(C)cc(C2(C(C)(C)O)CCN(C)CC2)c1 [U]	47.0	–	–	Mouse PQW ED50 (mg/kg) (Male CF1 mice; s.c.): 4.5
CN1CCC(c2cccc(Br)c2)(C(C)(C)O)CC1 [Example 41, 4-(3'-Bromophenyl)-α,α,1-trimethyl-4-piperidinemethanol]	–	24	19	–
CCC(C)(O)C1(c2cccc(OC)c2)CCN(C)CC1 (centres unmarked) [CC]	68.0	–	–	Mouse PQW ED50 (mg/kg) (Male CF1 mice; s.c.): 23.0
CN1CCC(c2cccc(Cl)c2)(C(C)(C)O)CC1 [Example 1a, 4-(3'-Chlorophenyl)-α,α,1-trimethyl-4-piperidinemethanol]	–	10	16.1	–
Cc1cccc(C2(C(C)O)CCN(C)CC2)c1 (centres unmarked) [Example 13]	–	47	4.7	–
COc1ccc(C2(C(C)O)CCN(C)CC2)cc1 (centres unmarked) [Example 17]	–	> 81	> 81	Mouse PQW remark (Male CF1 mice): Inactive; ED50 (Male CF mice): 1.3 mg/kg
CC(O)C1(c2cccc(F)c2)CCN(C)CC1 (centres unmarked) [Example 5]	–	> 81	24	–
CN1CCC(c2cccc(O)c2)(C(C)(C)O)CC1 [AA]	>81.0	–	–	Mouse PQW ED50 (mg/kg) (Male CF1 mice; s.c.): 62.0
